Results: US20080063642A1, “Methods of using (+)-1,4-dihydro-7-[(3S,4S)-3-methoxy-4-(methylamino)-1-pyrrolidinyl]-4-oxo-1-(2-thiazolyl)-1,8-naphthyridine-3-carboxylic acid for treatment of certain hematologic disorders” (priority 2006, published 2008)
In brackets after ≈: the same amount, converted by molar mass. Like-named read-outs stand apart in the source and are kept apart here. Marks after values point to notes of the source that are not given here.

What was measured:
[1] = tested on: HL-60 (promyelocytic leukemia); experiment: MTT cell viability assay, HL-60; type: cell-based; details: Homo sapiens, MTT after 72 hours
Experimental: (§1) The following cell lines were used in this assay: HL-60 (promyelocytic leukemia); Jurkat (T cell leukemia); CCRF-CEM (lymphoblastic leukemia); CEM/C2 (camptothecan resistant derivative of CCRF-CEM).
(§2) Cells were seeded in 96 wells plates at 3000 cells per well and incubated for 16 hours. Compound dilutions were performed in DMSO from 10 mM with 3 fold dilutions. Titrations were diluted 1:100 in media to achieve final compound concentrations. The 96 well plates were aspirated and compound dilutions in media were added ([…]). MTT analysis was carried out after 72 hours of incubation at 37° C. Briefly, […] of MTT solution was added to each well. Cells were incubated at 37° C. for 1-2 hours. Cells were lysed with the addition of […] cell lysis buffer and MTT was solubilized overnight at 37° C. Plates were read on a spectromax machine with an absorbance measurement at […]. IC50's were calculated (data provided in Table 1) using regression analysis within GraphPad Prism.

[2] = tested on: Jurkat (T cell leukemia); experiment: MTT cell viability assay, Jurkat; type: cell-based; details: Homo sapiens, MTT after 72 hours
Experimental: as §1, §2

[3] = tested on: CCRF-CEM (lymphoblastic leukemia); experiment: MTT cell viability assay, CCRF-CEM; type: cell-based; details: Homo sapiens, MTT after 72 hours
Experimental: as §1, §2

[4] = tested on: CEM/C2 (camptothecan resistant derivative of CCRF-CEM); experiment: MTT cell viability assay, CEM/C2; type: cell-based; details: Homo sapiens, MTT after 72 hours
Experimental: as §1, §2

[5] = tested on: CCRF-CEM acute lymphoblastic leukemia tumor; experiment: CCRF-CEM xenograft model; type: in vivo; details: CCRF-CEM; 25 mg/kg q7d × 3, IV; 20 or 21 days after start
Experimental: CCRF-CEM acute lymphoblastic leukemia tumor lobes of 2-3 mm square were transplanted subcutaneously into nude mice. Tumors were allowed to grow to approximately 8-20 mm in diameter. […] Acceptable toxicity was defined as a mean group weight loss of 30% or less and not more than one toxic death among 6 treated animals. Anti-tumor activities of the drugs were assessed 20 or 21 days after the start of administration. FIGS. 1-2 and Table 2 provides data for tumor inhibition rate (IR) and survival ratio in the CCRF-CEM and LM3-Jck xenograft models.

[6] = tested on: LM3-Jck human malignant lymphoma tumor; experiment: LM3-Jck xenograft model; type: in vivo; details: for IR (%) tumor inhibition rate: LM3-JcK, 21 days after start
Experimental: LM3-Jck human malignant lymphoma tumor lobes (2-3 mm square) were transplanted subcutaneously into nude mice. Tumors were allowed to grow to approximately 7-14 mm in diameter. […] Acceptable toxicity was defined as a mean group weight loss of 30% or less and not more than one toxic death among 6 treated animals. Anti-tumor activities of the drugs were assessed 21 days after the start of administration.

[7] = tested on: bone marrow; experiment: Bone marrow/cytology assay (Example 4): bone marrow cellularity; type: in vivo, Female CD-1 mice
Experimental: (§3) Blood was drawn on days 6, 8, and 12 post initial injection for hematological analysis. Femurs were extracted on day 6 fixed in Streck and H&E stained prior to bone marrow cellularity analysis. […] At 20 mg/kg, cellularity was reduced to 7.5%, while circulating neutrophils were reduced from a pre-dose level of […] to a nadir of 51±24 cells/mL blood on day 8. Absolute neutrophil counts subsequently rebounded and soon returned to normal levels. Total WBCs also reached a nadir on day 8, but returned to normal levels.

[8] = tested on: circulating neutrophils, WBCs, platelets; parameters: species or system Female CD-1 mice; details: mouse, in vivo
Experimental: as §3

[9] = Bone marrow/cytology assay (Example 4): body weight loss; type: in vivo, Female CD-1 mice; details: all dose groups, 5-20 mg/kg
Experimental: as §3
FIGS. 5 and 6 show neutrophil and total white blood cell counts from blood samples on day 8 post initial injection. […] Body weight loss was tolerable across all dose groups.

[10] = tested on: peripheral neutrophils, white blood cells, platelets; experiment: Combination dosing SNS-595 and Ara-C (Example 5): peripheral cytology; type: in vivo, nu/nu mice; details: mouse, in vivo
Experimental: At various time points described in Table 5, mice were euthanized by CO2 asphyxiation in accordance to Institutional Animal Care and Use Committee (IACUC) guidelines. Blood was collected through cardiac tap and transferred to EDTA tubes. The analysis of murine blood CBC and differential counts for samples in these tubes was conducted (at Quality Clinical Labs, Moutainview). Statistical significance was determined by one-tailed student t-test, using Welch's correction for unequal variances.

[11] = tested on: femoral bone marrow; experiment: Combination dosing SNS-595 and Ara-C (Example 5): femoral bone marrow cellularity; type: in vivo, nu/nu mice
Source text: Femurs were harvested for histological evaluation. The femur was placed in Streck fixative, paraffin embedded, sectioned, transferred to slides, and H&E stained (at BioPathology Sciences). Immunohistochemical slides were processed and analyzed for percent cellularity of intact bone marrow.

[12] = tested on: bone marrow; experiment: Monotherapy and combination with Ara-C (Example 6): bone marrow total cellularity; type: in vivo, Female CD-1 mice
Experimental: Blood was analyzed at Quality Control Labs (Mountain View, Calif.) for complete blood count and differential count. Bone marrow smears from femurs on Day 6 and Day 12 were prepared and geimsa stained for differential counts. Femurs were also placed in Streck fixative, processed, sectioned and H&E stained. Femur and bone marrow smears were analyzed at BioPathology Sciences (South San Francisco, Calif.) for total cellularity and differential count. […] The compounds were administered on Day 0 and Day 4.

[13] = tested on: myeloid cell lineages in bone marrow; experiment: Monotherapy and combination with Ara-C (Example 6): bone marrow smears, differential counts; type: in vivo, Female CD-1 mice; details: SNS-595 treated animals; Day 6
Experimental: Combination: […] Blood was analyzed at Quality Control Labs (Mountain View, Calif.) for complete blood count and differential count. Bone marrow smears from femurs on Day 6 and Day 12 were prepared and geimsa stained for differential counts. Femurs were also placed in Streck fixative, processed, sectioned and H&E stained. Femur and bone marrow smears were analyzed at BioPathology Sciences (South San Francisco, Calif.) for total cellularity and differential count.

[14] = mouse, in vivo, iv
Experimental: The effects of dosing were studied on changes in body weight, peripheral cytology, and femoral bone marrow cellularity over time as described below.
Before beginning the study, all animals were allowed to acclimatize for 3 days from shipping related stress and the health of the mice was assessed daily by observation. Purified water (reverse osmosis) and irradiated food (PicoLab Rodent Diet 20, #5053; Dean's Animal Feeds, San Carlos, Calif.) were provided ad libitum, and the animals were kept on a 12 hour light and dark cycle.

[15] = CD-1 mouse model; q4d × 2
[16] = Group 4: SNS-595 15 mg/kg IV q4d × 2

CN[C@H]1CN(c2ccc3c(=O)c(C(=O)O)cn(-c4nccs4)c3n2)C[C@@H]1OC [SNS-595, (+)-1,4-dihydro-7-[(3S,4S)-3-methoxy-4-(methylamino)-1-pyrrolidinyl]-4-oxo-1-(2-thiazolyl)-1,8-naphthyridine-3-carboxylic acid]
IC50 [1]: 0.053 µg/mL (≈ 0.132 µM) | IC50 [2]: 0.023 µg/mL (≈ 0.0573 µM) | IC50 [3]: 0.018 µg/mL (≈ 0.0448 µM) | IC50 [4]: 0.01 µg/mL (≈ 0.0249 µM) | IR (%) tumor inhibition rate [5]: 98.1* % | IR (%) tumor inhibition rate ([6]; 20 mg/kg q7d × 3, IV): 98.9* % | IR (%) tumor inhibition rate ([6]; 25 mg/kg q7d × 3, IV): 98.5* % | antitumor activity ([6]; LM-3 Jck malignant lymphoma, 20 and 25 mg/kg): complete tumor regressions | bone marrow cellularity ([7]; 20 mg/kg IV Day 0 and Day 4, femurs day 6): 7.5% | bone marrow at 12 days post initial injection ([7]; 20 mg/kg, day 12): bone marrow rebound | bone marrow cellularity, dose response ([7]; 5, 10, 15, 20 mg/kg IV Day 0 and Day 4, two days after second administration): dose-dependent reduction in cellularity | platelet response [8]: minor platelet response | day of total WBC nadir ([8]; iv): 8 days | body weight loss [9]: tolerable | circulating white blood cells, dose response [10]: dose-dependent reduction | day by which neutrophils returned to normal levels [10]: ≤ 12 days | day by which platelets returned to normal levels [10]: ≤ 12 days | number of neutrophils versus vehicle group [10]: significantly lower than the vehicle group | recovery of white blood cells [10]: failed to return to normal levels by day 18 | number of platelets versus vehicle group ([10]; 5 mg/kg): not significantly decrease | number of circulating white blood cells versus vehicle group ([10]; 10 mg/kg): significantly lower than the vehicle group | number of white blood cells versus vehicle group ([10]; 15 mg/kg): significantly lower than the vehicle group | total cellularity, femur cross section of representative animal ([11]; Day 6, SNS-595 5 mg/kg q4d ×2 IV, Animal #23): 60% | total cellularity, femur cross section of representative animal ([11]; Day 6, SNS-595 10 mg/kg q4d ×2 IV, Animal #44): 50% | total cellularity, femur cross section of representative animal ([11]; Day 6, SNS-595 15 mg/kg q4d ×2 IV, Animal #63): 20% | total cellularity, femur cross section of representative animal ([11]; Day 12, SNS-595 15 mg/kg q4d ×2 IV, Animal #73): 100% | Average Total Cellularity Day 6 ([11]; Group 2: SNS-595 5 mg/kg IV q4d × 2): 70% | Average Total Cellularity Day 6 ([11]; Group 3: SNS-595 10 mg/kg IV q4d × 2): 56% | Average Total Cellularity Day 6 [11, 16]: 26% | Average Total Cellularity Day 12 [11, 16]: 100% | reduction in cellularity ([11]; SNS-595 10 mg/kg IV single agent): 44% | bone marrow cellularity, dose response ([11]; SNS-595 single agent 5, 10, 15 mg/kg): dose-dependent reduction in bone marrow cellularity | Total Cellularity (Avg) Exp #2 ([12]; SNS-595 10 mg/kg q4d × 2): 54% | Total Cellularity (Avg) Exp #1 ([12]; SNS-595 10 mg/kg q4d × 2, two days after completion of treatment, 10 mg/kg): 56% | Total Cellularity (Avg) Exp #2 ([12]; SNS-595 20 mg/kg q4d × 2): 18% | immature neutrophils in bone marrow smears [13]: significant increase | % of Body Wt Nadir ([14]; 5 mg/kg): 0% | Day of Body Wt Nadir ([14]; 5 mg/kg): 0 days | % of Body Wt Nadir ([14]; 10 mg/kg): 0% | Day of Body Wt Nadir ([14]; 10 mg/kg): 0 days | % of Body Wt Nadir ([14]; 15 mg/kg): −2.8% | Day of Body Wt Nadir ([14]; 15 mg/kg): 7 days | maximum tolerated dose (MTD) [15]: SNS-595 20 mg/kg q4d × 2*
